Patent publication US9012492B2, “Apocynin-lipoic acid conjugates and uses thereof” (priority 2011, dated 2015)

Assay: Stability in sodium phosphate buffer (HPLC)
Format: physicochemical
Details: for stability in sodium phosphate buffer: 50 mM, HPLC; for half-life: buffer without microsomes and without NADPH, matrix buffer (no microsomes, no NADPH)
Experimental: The stability of the compound of Formula (Ia) in a sodium phosphate buffer (50 mM, pH 7.4) was evaluated using HPLC. […] Area counts of apocynin and lipoid acid were found in 0 minute samples and were generally constant until the last time point measured (see: FIGS. 11-12 and Tables 5-6).

SMILES: COc1cc(C(C)=O)ccc1OC(=O)CCCCC1CCSS1 (stereo not drawn) [compound of Formula (Ia)]
- % Remaining (0.5 μM in sodium phosphate buffer (50 mM, pH 7.4), 0 min, Set-1): 100%
- % Remaining (0.5 μM in sodium phosphate buffer (50 mM, pH 7.4), 3 min, Set-1): 64%
- % Remaining (0.5 μM in sodium phosphate buffer (50 mM, pH 7.4), 6 min, Set-1): 50%
- % Remaining (0.5 μM in sodium phosphate buffer (50 mM, pH 7.4), 9 min, Set-1): 55%
- % Remaining (0.5 μM in sodium phosphate buffer (50 mM, pH 7.4), 12 min, Set-1): 50%
- % Remaining (0.5 μM in sodium phosphate buffer (50 mM, pH 7.4), 15 min, Set-1): 50%
- % Remaining (0.5 μM in sodium phosphate buffer (50 mM, pH 7.4), 18 min, Set-1): 50%
- % Remaining (0.5 μM in sodium phosphate buffer (50 mM, pH 7.4), 21 min, Set-1): 73%
- % Remaining (0.5 μM in sodium phosphate buffer (50 mM, pH 7.4), 27 min, Set-1): 64%
- % Remaining (0.5 μM in sodium phosphate buffer (50 mM, pH 7.4), 30 min, Set-1): 77%
- stability in sodium phosphate buffer (0.5 μM, pH 7.4): stable
- % Remaining (10 μM in sodium phosphate buffer (50 mM, pH 7.4), 0 min, Set-1): 100%
- % Remaining (10 μM in sodium phosphate buffer (50 mM, pH 7.4), 3 min, Set-1): 83%
- % Remaining (10 μM in sodium phosphate buffer (50 mM, pH 7.4), 6 min, Set-1): 73%
- % Remaining (10 μM in sodium phosphate buffer (50 mM, pH 7.4), 9 min, Set-1): 83%
- % Remaining (10 μM in sodium phosphate buffer (50 mM, pH 7.4), 12 min, Set-1): 73%
- % Remaining (10 μM in sodium phosphate buffer (50 mM, pH 7.4), 15 min, Set-1): 74%
- % Remaining (10 μM in sodium phosphate buffer (50 mM, pH 7.4), 18 min, Set-1): 71%
- % Remaining (10 μM in sodium phosphate buffer (50 mM, pH 7.4), 21 min, Set-1): 76%
- % Remaining (10 μM in sodium phosphate buffer (50 mM, pH 7.4), 27 min, Set-1): 57%
- % Remaining (10 μM in sodium phosphate buffer (50 mM, pH 7.4), 30 min, Set-1): 79%
- stability in sodium phosphate buffer (10 μM, pH 7.4): stable
- half-life (DLM/HLM study): 23 min
- half-life (rat liver microsome study): > 30 min
- % Remaining (buffer, 0 h, 0.5 μM, pH 7.4): 100%
- Apocynin area counts, % Remaining (buffer, 0 h, 0.5 μM, pH 7.4): 100%
- Lipoic acid area counts, % Remaining (buffer, 0 h, 0.5 μM, pH 7.4): 100%
- % Remaining (buffer, 0 h, 10 μM, pH 7.4): 100%
- Apocynin area counts, % Remaining (buffer, 0 h, 10 μM, pH 7.4): 100%
- Lipoic acid area counts, % Remaining (buffer, 0 h, 10 μM, pH 7.4): 100%
- % Remaining (buffer, 0.05 h, 0.5 μM, pH 7.4): 71%
- Apocynin area counts, % Remaining (buffer, 0.05 h, 0.5 μM, pH 7.4): 78%
- Lipoic acid area counts, % Remaining (buffer, 0.05 h, 0.5 μM, pH 7.4): 103%
- % Remaining (buffer, 0.05 h, 10 μM, pH 7.4): 92%
- Apocynin area counts, % Remaining (buffer, 0.05 h, 10 μM, pH 7.4): 96%
- Lipoic acid area counts, % Remaining (buffer, 0.05 h, 10 μM, pH 7.4): 100%
- % Remaining (buffer, 0.1 h, 0.5 μM, pH 7.4): 59%
- Apocynin area counts, % Remaining (buffer, 0.1 h, 0.5 μM, pH 7.4): 68%
- Lipoic acid area counts, % Remaining (buffer, 0.1 h, 0.5 μM, pH 7.4): 99%
- % Remaining (buffer, 0.1 h, 10 μM, pH 7.4): 80%
- Apocynin area counts, % Remaining (buffer, 0.1 h, 10 μM, pH 7.4): 91%
- Lipoic acid area counts, % Remaining (buffer, 0.1 h, 10 μM, pH 7.4): 105%
- % Remaining (buffer, 0.15 h, 0.5 μM, pH 7.4): 47%
- Apocynin area counts, % Remaining (buffer, 0.15 h, 0.5 μM, pH 7.4): 65%
- Lipoic acid area counts, % Remaining (buffer, 0.15 h, 0.5 μM, pH 7.4): 91%
- % Remaining (buffer, 0.15 h, 10 μM, pH 7.4): 87%
- Apocynin area counts, % Remaining (buffer, 0.15 h, 10 μM, pH 7.4): 94%
- Lipoic acid area counts, % Remaining (buffer, 0.15 h, 10 μM, pH 7.4): 113%
- % Remaining (buffer, 0.2 h, 0.5 μM, pH 7.4): 53%
- Apocynin area counts, % Remaining (buffer, 0.2 h, 0.5 μM, pH 7.4): 71%
- Lipoic acid area counts, % Remaining (buffer, 0.2 h, 0.5 μM, pH 7.4): 89%
- % Remaining (buffer, 0.2 h, 10 μM, pH 7.4): 76%
- Apocynin area counts, % Remaining (buffer, 0.2 h, 10 μM, pH 7.4): 95%
- Lipoic acid area counts, % Remaining (buffer, 0.2 h, 10 μM, pH 7.4): 118%
